According to patent publication US8697715B2, “Serine/threonine kinase inhibitors” (Array BioPharma Inc., priority 2012, dated 2014):

System: PMA-stimulated P90RSK(Ser380) phosphorylation in HepG2 cells
Experiment: Cellular P90RSK(Ser380) Phosphorylation Assay
Assay type: cell-based
Conditions: Homo sapiens, read-out: Biological Example 2 IC50 (nM), 1.5 hours compound incubation, PMA 100 ng/mL 30 minutes, normalized to GAPDH, single assay or mean of multiple assays
Method: Inhibition of PMA-stimulated P90RSK(Ser380) phosphorylation was determined by the following in vitro cellular mechanistic assay, which comprises incubating cells with a compound for 1.5 hours and quantifying fluorescent pP90RSK(Ser380) signal on fixed cells and normalizing to GAPDH signal.
HepG2 cells were obtained from ATCC and grown in DMEM supplemented with 10% fetal bovine serum. Cells were plated in 96-well plates at 35,000 cells/well and allowed to attach overnight at 37° C./5% CO2. Diluted compounds were then added at a final concentration of 0.5% DMSO. After 1.5 hours compound incubation, cells were stimulated with the addition of phorbol 12-myristate 13-acetate (“PMA”) at a final concentration of 100 ng/mL; the PMA stimulation was a 30-minute incubation at 37° C./5% CO2. After the 30-minute PMA stimulation, cells were washed with phosphate buffered saline (“PBS”) and fixed in 3.7% formaldehyde in PBS at room temperature for 15-20 minutes. This was followed by another wash in PBS and then permeabilization in 100% MeOH at room temperature for 10-15 minutes. Following the permeabilization incubation, cells were washed in PBS/0.05% Tween-20, followed by a block in Odyssey blocking buffer (LI-COR Biosciences) for at least 1 hour. […] Both secondary antibodies were used at a 1:1000 dilution. Cells were then washed and analyzed for fluorescence at both wavelengths using the Odyssey Infrared Imaging System (LI-COR Biosciences). Phosphorylated P90RSK(Ser380) signal was normalized to GAPDH signal.

Structure (SMILES)	IC50
O=c1cc(-c2ccnc(NC3CCOCC3)n2)ccn1[C@H](CO)c1ccc(Cl)c(F)c1 [Example 1, (S)-1-(1-(4-chloro-3-fluorophenyl)-2-hydroxyethyl)-4-(2-((tetrahydro-2H-pyran-4-yl)amino)pyrimidin-4-yl)pyridin-2(1H)-one]	31.9 nM
O=c1cc(-c2ccnc(N[C@H]3CCOC[C@H]3F)n2)ccn1[C@H](CO)c1ccc(Cl)c(F)c1 [Example 2, 1-((S)-1-(4-chloro-3-fluorophenyl)-2-hydroxyethyl)-4-(2(((3S,4S)-3-fluorotetrahydro-2H-pyran-4-yl)amino)pyrimidin-4-yl)pyridin-2(1H)-one]	59.1 nM
O=c1cc(-c2ccnc(N[C@@H]3CCOC[C@H]3F)n2)ccn1[C@H](CO)c1ccc(Cl)c(F)c1 [Example 3, 1-((S)-1-(4-chloro-3-fluorophenyl)-2-hydroxyethyl)-4-(2-(((3S,4R)-3-fluorotetrahydro-2H-pyran-4-yl)amino)pyrimidin-4-yl)pyridin-2(1H)-one]	40.3 nM
O=c1cc(-c2ccnc(N[C@H]3CCOC[C@H]3F)n2)ccn1[C@H](CO)c1ccc(Cl)c(Cl)c1 [Example 4, 1-((S)-1-(3,4-dichlorophenyl)-2-hydroxyethyl)-4-(2-(((3S,4S)-3-fluorotetrahydro-2H-pyran-4-yl)amino)pyrimidin-4-yl)pyridin-2(1H)-one]	8.5 nM
Cn1nccc1Nc1nccc(-c2ccn([C@H](CO)c3ccc(Cl)c(F)c3)c(=O)c2)n1 [Example 39, (S)-1-(1-(4-chloro-3-fluorophenyl)-2-hydroxyethyl)-4-(2-((1-methyl-1H-pyrazol-5-yl)amino)pyrimidin-4-yl)pyridin-2(1H)-one]	15.5 nM
O=c1cc(-c2ccnc(N[C@@H]3C[C@@H]4C[C@H]3CO4)n2)ccn1[C@H](CO)c1ccc(Cl)c(F)c1 [Example 42, 4-(2-((1S,4R,5R)-2-oxabicyclo[2.2.1]heptan-5-ylamino)pyrimidin-4-yl)-1-((S)-1-(4-chloro-3-fluorophenyl)-2-hydroxyethyl)pyridin-2(1H)-one]	74 nM
COc1ccc([C@@H]([C@H]2CCCN2)n2ccc(-c3ccnc(NC4CCOCC4)n3)cc2=O)cc1F [Example 50, 1-((S)-(3-fluoro-4-methoxyphenyl)((R)-pyrrolidin-2-yl)methyl)-4-(2-((tetrahydro-2H-pyran-4-yl)amino)pyrimidin-4-yl)pyridin-2(1H)-one]	292 nM
O=c1cc(-c2ccnc(NC3CCOCC3)n2)ccn1[C@H](CO)c1cccc(Cl)c1 [Example 57, (S)-1-(1-(3-chlorophenyl)-2-hydroxyethyl)-4-(2-((tetrahydro-2H-pyran-4-yl)amino)pyrimidin-4-yl)pyridin-2(1H)-one]	1770 nM
C[C@@H](CO)Nc1nccc(-c2ccn(C(CO)c3cccc(Cl)c3)c(=O)c2)n1 (stereo partly drawn) [Example 58, 1-(1-(3-chlorophenyl)-2-hydroxyethyl)-4-(2-(((S)-1-hydroxypropan-2-yl)amino)pyrimidin-4-yl)pyridin-2(1H)-one]	708 nM
C[C@@H](CO)Nc1nccc(-c2ccn(C(CO)c3ccc(F)c(Cl)c3)c(=O)c2)n1 (stereo partly drawn) [Example 60, 1-(1-(3-chloro-4-fluorophenyl)-2-hydroxyethyl)-4-(2-(((S)-1-hydroxypropan-2-yl)amino)pyrimidin-4-yl)pyridin-2(1H)-one]	1610 nM
O=c1cc(-c2ccnc(NC3CCOCC3)n2)ccn1C(c1ccc(Cl)c(F)c1)[C@@H]1CCCN1 (stereo partly drawn) [Example 102, 1-((4-chloro-3-fluorophenyl)((S)-pyrrolidin-2-yl)methyl)-4-(2-((tetrahydro-2H-pyran-4-yl)amino)pyrimidin-4-yl)pyridin-2(1H)-one]	> 5000 nM
CC[C@@H](CO)Nc1nccc(-c2ccn(C(C)c3ccc(Cl)c(F)c3)c(=O)c2)n1 (stereo partly drawn) [Example 134, 1-(1-(4-chloro-3-fluorophenyl)ethyl)-4-(2-(((S)-1-hydroxybutan-2-yl)amino)pyrimidin-4-yl)pyridin-2(1H)-one]	544 nM
CCc1nccc(Nc2nccc(-c3ccn(C(CO)c4ccc(Cl)c(F)c4)c(=O)c3)n2)n1 (centres unmarked) [Example 139, 1-(1-(4-chloro-3-fluorophenyl)-2-hydroxyethyl)-4-(2-((2-ethylpyrimidin-4-yl)amino)pyrimidin-4-yl)pyridin-2(1H)-one]	372 nM
O=c1cc(-c2ccnc(NC3CCOCC3)n2)ccn1CCc1ccc(OC(F)(F)F)cc1 [Example 157, 4-(2-((tetrahydro-2H-pyran-4-yl)amino)pyrimidin-4-yl)-1-(4-(trifluoromethoxy)phenethyl)pyridin-2(1H)-one]	46.3 nM
Cc1nn(C)cc1Nc1nccc(-c2ccn(C(CO)c3ccc(Cl)c(F)c3)c(=O)c2)n1 (centres unmarked) [Example 166, 1-(1-(4-chloro-3-fluorophenyl)-2-hydroxyethyl)-4-(2-((1,3-dimethyl-1H-pyrazol-4-yl)amino)pyrimidin-4-yl)pyridin-2(1H)-one]	12.9 nM
Cc1cc(Nc2nccc(-c3ccn([C@H](CO)c4ccc(Cl)c(F)c4)c(=O)c3)n2)n(C)n1 [Example 167, (S)-1-(1-(4-chloro-3-fluorophenyl)-2-hydroxyethyl)-4-(2-((1,3-dimethyl-1H-pyrazol-5-yl)amino)pyrimidin-4-yl)pyridin-2(1H)-one]	100 nM
C=C(c1ccc(Cl)c(F)c1)n1ccc(-c2ccnc(Nc3ccnc(C)c3)n2)cc1=O [Example 172, 1-(1-(4-chloro-3-fluorophenyl)vinyl)-4-(2-((2-methylpyridin-4-yl)amino)pyrimidin-4-yl)pyridin-2(1H)-one]	12.9 nM
CCn1cc(Nc2nccc(-c3ccn([C@H](CO)c4ccc(Cl)c(F)c4)c(=O)c3)n2)c(C)n1 [Example 173, (S)-1-(1-(4-chloro-3-fluorophenyl)-2-hydroxyethyl)-4-(2-((1-ethyl-3-methyl-1H-pyrazol-4-yl)amino)pyrimidin-4-yl)pyridin-2(1H)-one]	110 nM
Cc1nc[nH]c1Nc1nccc(-c2ccn([C@H](CO)c3ccc(Cl)c(F)c3)c(=O)c2)n1 [Example 185, (S)-1-(1-(4-chloro-3-fluorophenyl)-2-hydroxyethyl)-4-(2-((4-methyl-1H-imidazol-5-yl)amino)pyrimidin-4-yl)pyridin-2(1H)-one]	19.6 nM
Cn1cc(C(c2ccc(Cl)c(Cl)c2)n2ccc(-c3nc(NC4CCOCC4)ncc3F)cc2=O)cn1 (centres unmarked) [Example 209, 1-((3,4-dichlorophenyl)(1-methyl-1H-pyrazol-4-yl)methyl)-4-(5-fluoro-2-((tetrahydro-2H-pyran-4-yl)amino)pyrimidin-4-yl)pyridin-2(1H)-one]	6.7 nM
O=c1cc(-c2ccnc(NC3CCOCC3)n2)ccn1Cc1cc2ccc(Cl)cc2[nH]1 [Example 250, 1-((6-chloro-1H-indol-2-yl)methyl)-4-(2-((tetrahydro-2H-pyran-4-yl)amino)pyrimidin-4-yl)pyridin-2(1H)-one]	15.2 nM
O=c1cc(-c2ccnc(NC3CCOCC3)n2)ccn1Cc1cc2c(F)cccc2[nH]1 [Example 266, 1-((4-fluoro-1H-indol-2-yl)methyl)-4-(2-((tetrahydro-2H-pyran-4-yl)amino)pyrimidin-4-yl)pyridin-2(1H)-one]	8.6 nM
O=c1cc(-c2ccnc(NC3CCOCC3)n2)ccn1Cc1cc(F)c2cc[nH]c2c1 [Example 289, 1-((4-fluoro-1H-indol-6-yl)methyl)-4-(2-((tetrahydro-2H-pyran-4-yl)amino)pyrimidin-4-yl)pyridin-2(1H)-one]	20.4 nM
